In article PMC9106035, “Synthesis, X-ray Structure and Biological Studies of New Self-Assembled Cu(II) Complexes Derived from s-Triazine Schiff Base Ligand” (Molecules, 2022):
In brackets after ≈: the same amount, converted by molar mass.

How the values were obtained:
[1] = DPPH radical scavenging assay; format: biochemical
Summary of the method: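 Methanolic compound solution was added to 0.004 %w/v methanolic DPPH, and absorbance at 515 nm was followed each minute until stable at 16 min. Percent inhibition was taken as control absorbance at 0 min versus sample at 16 min, in triplicate. IC50 was estimated from dose-response plots, with ascorbic acid as reference.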

[2] = tested on: lung carcinoma A-549 cell line; assay: Anticancer activity, MTT viability assay; format: cell-based
[3] = tested on: normal human lung fibroblast MRC-5 cells; assay: Cytotoxic activity on normal cells, MTT viability assay; format: cell-based; settings: Homo sapiens, MRC5, MRC-5, Table S12, read-out: Inhibitory %
Experimental: In this regard, the selectivity index (SI) was calculated as the ratio of cytotoxic effect on the normal cell line to the cytotoxic effect on the cancer cell line.
Method S4 Evaluation of Cytotoxic activity
The cells were propagated in Dulbecco’s modified Eagle’s medium (DMEM) supplemented with 10% heat-inactivated fetal bovine serum, 1 % L-glutamine, HEPES buffer and 50µg/mL Gentamycin. All cells were maintained at 37 °C in a humidified atmosphere with 5% CO2 and were subcultured tw o times a week.
Cytotoxicity evaluation using viability assay
For cytotoxicity assay, the cells were seeded in 96-well plate at a cell concentration of 1×10^4 cells per well in 100µl of growth medium. Fresh medium containing different concentrations of the test sample was added after 24 h of seeding. Serial two-fold dilutions of the tested chemical compound were added to confluent cell monolayers dispensed into 96-well, flat-bottomed microtiter plates (Falcon, NJ, USA) using a multichannel pipette. The microtiter plates were incubated at 37 °C in a humidified incubator with 5% CO2 for a period of 24 h. Three wells were used for each concentration of the test sample. Control cells were incubated without test sample and with or without DMSO. The little percentage of DMSO present in the […]
cells for at 37°C, for 24 h, the viabl e cells yield was determined by the MTT test.
Briefly, the media was removed from the 96 well plate and replaced with 100 µL of fresh culture DMEM m edium without phenol red then 10 µL of the 12 mM MTT stock solution (5 mg of MTT in 1 mL of PBS) to each well including the untreated controls. The 96 well plates were then incubated at 37°C and 5% CO2 for 4 hours. An 85 µL aliquot of the media was removed from t he wells, and 50 µL of DMSO was added to each well and mixed thoroughly with the pipette and incubated at 37°C for 10 min. Then, the optical density was measured at 590 nm with the microplate reader (SunRise, TECAN, Inc, USA) to determine the number of viable cells and the percentage of viability was calculat ed as [(ODt/ODc)]x100% where ODt i s the mean optical density of wells treated with the tested s ample and ODc is the mean optical density of untreated cells. The relation between surviving cells and drug concentration is plotted to get the survival curve of each tumor cell line after treatment with the specified compound. The 50% inhibitory concentration (IC50), the concentration required to cause t oxic effects in 50% of intact cells, was estimated from graphic plots of the dose response curve for each conc. using Graphpad Prism software (San Diego, […]

Compound: CC(=NNc1nc(N2CCOCC2)nc(N2CCOCC2)n1)c1ccccc1O [DMOHT, 2-(1-(2-(4,6-dimorpholino-1,3,5-triazin-2-yl)hydrazono)ethyl)phenol]
- DPPH Scavenging % ([1]; Conc. 2.5 μg/mL): 5.73%
- DPPH Scavenging % ([1]; Conc. 5 μg/mL): 10.48%
- DPPH Scavenging % ([1]; Conc. 10 μg/mL): 19.87%
- DPPH Scavenging % ([1]; Conc. 20 μg/mL): 31.95%
- DPPH Scavenging % ([1]; Conc. 40 μg/mL): 47.09%
- DPPH Scavenging % ([1]; Conc. 80 μg/mL): 61.32%
- DPPH Scavenging % ([1]; Conc. 160 μg/mL): 73.64%
- DPPH Scavenging % ([1]; Conc. 320 μg/mL): 84.93%
- DPPH Scavenging % ([1]; Conc. 640 μg/mL): 88.54%
- DPPH Scavenging % ([1]; Conc. 1280 μg/mL): 93.87%
- IC50 (DPPH scavenging) ([1]; antioxidant activity): 48.2 ± 1.08 µg/mL (≈ 121 µM)
- SI = CC50/IC50 ([2]; CC50 (MRC-5) / IC50 (A-549)): 1.77
- viability at 2.5 µM ([2]; Homo sapiens, A549, A-549, sample conc. 2.5 µM, Table S7): 100%
- inhibition at 2.5 µM ([2]; Homo sapiens, A549, A-549, sample conc. 2.5 µM, Table S7, read-out: Inhibitory %): 0%
- viability at 5 µM ([2]; Homo sapiens, A549, A-549, sample conc. 5.0 µM, Table S7): 100%
- inhibition at 5 µM ([2]; Homo sapiens, A549, A-549, sample conc. 5.0 µM, Table S7, read-out: Inhibitory %): 0%
- viability at 9.8 µM ([2]; Homo sapiens, A549, A-549, sample conc. 9.8 µM, Table S7): 100%
- inhibition at 9.8 µM ([2]; Homo sapiens, A549, A-549, sample conc. 9.8 µM, Table S7, read-out: Inhibitory %): 0%
- viability at 19.5 µM ([2]; Homo sapiens, A549, A-549, sample conc. 19.5 µM, Table S7): 100%
- inhibition at 19.5 µM ([2]; Homo sapiens, A549, A-549, sample conc. 19.5 µM, Table S7, read-out: Inhibitory %): 0%
- viability at 39.1 µM ([2]; Homo sapiens, A549, A-549, sample conc. 39.1 µM, Table S7): 100%
- inhibition at 39.1 µM ([2]; Homo sapiens, A549, A-549, sample conc. 39.1 µM, Table S7, read-out: Inhibitory %): 0%
- viability at 78.2 µM ([2]; Homo sapiens, A549, A-549, sample conc. 78.2 µM, Table S7): 98.2%
- inhibition at 78.2 µM ([2]; Homo sapiens, A549, A-549, sample conc. 78.2 µM, Table S7, read-out: Inhibitory %): 1.75%
- viability at 156.5 µM ([2]; Homo sapiens, A549, A-549, sample conc. 156.5 µM, Table S7): 90.7%
- inhibition at 156.5 µM ([2]; Homo sapiens, A549, A-549, sample conc. 156.5 µM, Table S7, read-out: Inhibitory %): 9.33%
- viability at 312.9 µM ([2]; Homo sapiens, A549, A-549, sample conc. 312.9 µM, Table S7): 75.1%
- inhibition at 312.9 µM ([2]; Homo sapiens, A549, A-549, sample conc. 312.9 µM, Table S7, read-out: Inhibitory %): 24.9%
- viability at 625.8 µM ([2]; Homo sapiens, A549, A-549, sample conc. 625.8 µM, Table S7): 43.9%
- inhibition at 625.8 µM ([2]; Homo sapiens, A549, A-549, sample conc. 625.8 µM, Table S7, read-out: Inhibitory %): 56.1%
- viability at 1251.7 µM ([2]; Homo sapiens, A549, A-549, sample conc. 1251.7 µM, Table S7): 21.5%
- inhibition at 1251.7 µM ([2]; Homo sapiens, A549, A-549, sample conc. 1251.7 µM, Table S7, read-out: Inhibitory %): 78.5%
- IC50 ([2]; Homo sapiens, A549, A-549 cells, 24 h, MTT): 565 µM
- inhibition at 2.5 µM ([3]; sample conc. 2.5 µM): 0%
- inhibition at 5 µM ([3]; sample conc. 5.0 µM): 0%
- inhibition at 9.8 µM ([3]; sample conc. 9.8 µM): 0%
- inhibition at 19.5 µM ([3]; sample conc. 19.5 µM): 0%
- inhibition at 39.1 µM ([3]; sample conc. 39.1 µM): 0%
- inhibition at 78.2 µM ([3]; sample conc. 78.2 µM): 0%
- inhibition at 156.5 µM ([3]; sample conc. 156.5 µM): 2.14%
- inhibition at 312.9 µM ([3]; sample conc. 312.9 µM): 10.4%
- inhibition at 625.8 µM ([3]; sample conc. 625.8 µM): 32.4%
- inhibition at 1251.7 µM ([3]; sample conc. 1251.7 µM): 61.8%
